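Step 1: Grow cells in 96-well plates. Step 2: Expose to compound for 48 hours at 5 concentrations. Step 3: Interpolate endpoints linearly; if unreached, use highest concentration. The concentration for full growth arrest is given as TGI.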
Assays:
Assay in all cases: NCI anticancer screen, dose series, 48 h
[1] = test system: 786-0 renal
[2] = test system: A549 NSCLC
[3] = test system: ACHN renal
[4] = test system: BT-549 breast
[5] = test system: CAKI-1 renal
[6] = test system: CCRF-CEM leukemia
[7] = test system: COLO 205 colon
[8] = test system: DU-145 prostate
[9] = test system: EKVX NSCLC
[10] = test system: HCC-2998 colon
[11] = test system: HCT-116 colon
[12] = test system: HCT-15 colon
[13] = test system: HL-60(TB) leukemia
[14] = test system: HOP-92 NSCLC
[15] = test system: HS 578T breast
[16] = test system: HT29 colon
[17] = test system: IGROV1 ovarian
[18] = test system: K-562 leukemia
[19] = test system: KM12 colon
[20] = test system: LOX IMVI melanoma
[21] = test system: M14 melanoma
[22] = test system: MALME-3M melanoma
[23] = test system: MCF7 breast
[24] = test system: MDA-MB-231 breast
[25] = test system: MDA-MB-435
[26] = test system: MDA-N
[27] = test system: MOLT-4 leukemia
[28] = test system: NCI-H226 lung
[29] = test system: NCI-H23 lung
[30] = test system: NCI-H460 lung
[31] = test system: NCI-H522 lung
[32] = test system: NCI/ADR-RES ovarian
[33] = test system: OVCAR-3 ovarian
[34] = test system: OVCAR-4 ovarian
[35] = test system: OVCAR-5 ovarian
[36] = test system: OVCAR-8 ovarian
[37] = test system: PC-3 prostate
[38] = test system: RPMI-8226 leukemia
[39] = test system: RXF 393 renal
[40] = test system: SF-268 CNS
[41] = test system: SF-295 CNS
[42] = test system: SF-539 CNS
[43] = test system: SK-MEL-2 melanoma
[44] = test system: SK-MEL-28 melanoma
[45] = test system: SK-MEL-5 melanoma
[46] = test system: SK-OV-3 ovarian
[47] = test system: SN12C renal
[48] = test system: SNB-19 CNS
[49] = test system: SNB-75 CNS
[50] = test system: SR leukemia
[51] = test system: SW-620 colon
[52] = test system: T-47D breast
[53] = test system: TK-10 renal
[54] = test system: U251 CNS
[55] = test system: UACC-257 melanoma
[56] = test system: UACC-62 melanoma
[57] = test system: UO-31 renal
[58] = test system: A498 renal

Oc1ccc(O)c(CNc2ccccc2)c1
TGI [1]: 26.1 µM
TGI [2]: > 100 µM
TGI [3]: 25.5 µM
TGI [4]: 24.3 µM
TGI [5]: 23.1 µM
TGI [6]: > 100 µM
TGI [7]: 37.4 µM
TGI [8]: 32.2 µM
TGI [9]: 43.4 µM
TGI [10]: 67.7 µM
TGI [11]: 23.9 µM
TGI [12]: 42.2 µM
TGI [13]: 12.8 µM
TGI [14]: 20.8 µM
TGI [15]: > 100 µM
TGI [16]: > 100 µM
TGI [17]: 33.4 µM
TGI [18]: > 100 µM
TGI [19]: 42.1 µM
TGI [20]: 28.1 µM
TGI [21]: 33.7 µM
TGI [22]: 31.9 µM
TGI [23]: 57.7 µM
TGI [24]: 38.4 µM
TGI [25]: 29.4 µM
TGI [26]: 16.6 µM
TGI [27]: > 100 µM
TGI [28]: 78.4 µM
TGI [29]: 32.4 µM
TGI [30]: 47 µM
TGI [31]: 6.65 µM
TGI [32]: > 100 µM
TGI [33]: 19.3 µM
TGI [34]: 28.6 µM
TGI [35]: 41.7 µM
TGI [36]: 36.4 µM
TGI [37]: 30 µM
TGI [38]: 3.14 µM
TGI [39]: 19.5 µM
TGI [40]: > 100 µM
TGI [41]: 29.7 µM
TGI [42]: 15.2 µM
TGI [43]: 82.2 µM
TGI [44]: > 100 µM
TGI [45]: 33.9 µM
TGI [46]: 38.9 µM
TGI [47]: 29.2 µM
TGI [48]: 45.1 µM
TGI [49]: > 100 µM
TGI [50]: 75.2 µM
TGI [51]: > 100 µM
TGI [52]: 37.9 µM
TGI [53]: 39.1 µM
TGI [54]: 44.2 µM
TGI [55]: 39.4 µM
TGI [56]: 30.6 µM
TGI [57]: 27 µM

O=C(O)C1CCCCC1c1c2ccc(=O)cc-2oc2cc(O)ccc12 (stereo not drawn)
TGI [1]: > 100 µM
TGI [58]: > 100 µM
TGI [2]: > 100 µM
TGI [3]: > 100 µM
TGI [4]: > 100 µM
TGI [5]: > 100 µM
TGI [6]: > 100 µM
TGI [7]: > 100 µM
TGI [8]: 66.7 µM
TGI [9]: > 100 µM
TGI [10]: > 100 µM
TGI [11]: > 100 µM
TGI [12]: > 100 µM
TGI [13]: > 100 µM
TGI [14]: 41.1 µM
TGI [15]: 96.7 µM
TGI [16]: > 100 µM
TGI [17]: 41.3 µM
TGI [18]: > 100 µM
TGI [19]: 49.1 µM
TGI [20]: > 100 µM
TGI [21]: 78.6 µM
TGI [22]: > 100 µM
TGI [23]: > 100 µM
TGI [24]: > 100 µM
TGI [25]: 49.3 µM
TGI [26]: > 100 µM
TGI [27]: > 100 µM
TGI [29]: > 100 µM
TGI [30]: > 100 µM
TGI [31]: 62.1 µM
TGI [32]: > 100 µM
TGI [33]: 69.2 µM
TGI [34]: 88.1 µM
TGI [35]: > 100 µM
TGI [36]: 90.8 µM
TGI [37]: > 100 µM
TGI [38]: > 100 µM
TGI [39]: 62.6 µM
TGI [40]: > 100 µM
TGI [41]: > 100 µM
TGI [42]: 48.7 µM
TGI [43]: > 100 µM
TGI [44]: > 100 µM
TGI [45]: > 100 µM
TGI [46]: 96.5 µM
TGI [47]: > 100 µM
TGI [48]: > 100 µM
TGI [49]: 72.1 µM
TGI [51]: > 100 µM
TGI [52]: 54.4 µM
TGI [53]: > 100 µM
TGI [54]: 96.9 µM
TGI [55]: > 100 µM
TGI [56]: > 100 µM
TGI [57]: > 100 µM
